According to US20220193185A1, “COMBINATION OF SYNTHETIC PEPTIDES WITH AFFINITY TO THE TGF-ß RECEPTOR AND WITH AFFINITY TO THE IL-10 RECEPTOR, PHARMACEUTICAL COMPOSITION AND THEIR USE AS IMMUNOMODULATORS IN THE TREATMENT OF AUTOIMMUNE, INFLAMMATORY OR ALLERGIC DISEASES” (Universidade Federal de Uberlândia, priority 2019, published 2022):
Bridges are numbered along the chain shown (N, C = ends). Where no end group is shown, it is not given here.

Assays:
[1] = tested on: TGF-β1 receptor on A549 cells; experiment: ELISA on cells of the A549 line using anti-TGF-β1 antibody; format: binding, human
Experimental: The peptides described in this patent application were selected using the Phage Display (PD) methodology. The selection was performed by evaluating the ability of said peptides to recognize the TGF-β1 receptor on A549 cells, using an ELISA assay. MaxiSorp 96-well microtiter plates were coated with 1×10^6 cells diluted in PBS and incubated overnight at 4° C. Cells were blocked with 3% PBS-BSA for 1 h at 37° C., washed once with PBS and incubated with […] of each TGF-β1 mimetic peptide or 5 ng/ml of recombinant TGF-β1 for 1 h at 37° C. After washing, the plate was incubated for 1 h at 37° C. with anti-TGF-β1 antibody. The plate was washed and incubated with HRP-labeled anti-human IgG antibody for 1 h at 37° C. After washing, TMB substrate solution was added to the plate; the reaction was stopped by adding the 2N H2SO4 solution and read at 492 nm in a microplate reader.
To investigate whether the synthesized peptides could bind to cell receptors, an ELISA assay was performed on cells of the A549 line using commercial anti-TGF-β1 antibody.

[2] = aggregation behavior in solution by Dynamic Light Scattering (DLS); format: physicochemical; conditions: for measured hydrodynamic radius: IL-10 mimetic peptides in solution
IFN signaling pathway = IFN signaling pathway in Jurkat-Dual reporter cells, SEAP production; format: cell-based; conditions: after 12, 24 and 48 hours; results depend on concentration
Experimental: (§1) In order to investigate the ability of synthetic peptides with affinity to the Interleukin-10 receptor to interfere in the NFkB, IFN and TLR4 pathways, reporter cell lines were used. To analyze whether the isolated peptides (without activation molecules) could induce any type of activation, the isolated peptides were tested in cell lines during 12, 24 and 48 hours of treatment. […] As an example, FIG. 13A, FIG. 13B, and FIG. 13C show an analysis of NFkB expression after stimulation with the synthesized IL-10 receptor affinity synthetic peptides described herein. Cells were treated for 12, 24 and 48 hours with the synthesized peptides Pep 1-IL10, Pep 2-IL10, Pep 3-IL10 and Pep 4-IL10, at different concentrations, without activating molecules. Luciferase was then measured after 12 hours of treatment (FIG. 13A), 24 hours of treatment (FIG. 13B) and 48 hours of treatment (FIG. 13C). […] TNF-α (200 ng/mL) was used as a positive control.
The most significant results will be described below. […] When cells were pretreated with IFN, although peptides at some concentrations indicated results, they were not statistically sufficient. Therefore, we cannot confirm whether they were able to interfere with pathway activation (FIGS. 17 A, B and C) in an equal or better way than the negative control (rIL-10). In the assays shown by FIGS. 16 (A, B and C) and FIGS. 17 (A, B and C), analysis of IFN expression was performed in Jurkat-Dual reporter cells. In the assays shown by FIGS. 16 A, B and C, cells were treated for 1 hour with peptides with further addition of IFN-α (104 EU/ml). Secreted Embryonic Alkaline Phosphatase (SEAP) production was measured after 12 hours of treatment (FIG. 16A), 24 hours of treatment (FIG. 16 B) and 48 hours of treatment (FIG. 16 C). In the assays shown by FIGS. 17A, B and C, cells were treated for 1 hour with IFN-α (104 EU/ml) with further addition of the peptides. SEAP production was measured after (A) 12 hours of treatment (B), 24 hours of treatment and (C) 48 hours of treatment. IFN-α (104 EU/ml) was used as a positive control and rlL-10 (0.4 ng/ml) as a negative control. *P<0.05.

NFkB pathway [3] = experiment: NFkB expression in Jurkat-Dual reporter cells, luciferase (IL-10 mimetic peptides); format: cell-based; conditions: without activating molecules; 12, 24 and 48 hours; different concentrations
Experimental: as §1
The assay was then carried out using TNF-α as activation molecule not only in the control, but after a pretreatment with the synthesized peptides Pep 1-IL10, Pep 2-IL10, Pep 3-IL10 and Pep 4-IL10, at different concentrations. All peptides were able to modulate NFKB activation after 12, 24 and 48 hours, with different results depending on the concentrations used. […] In the assays shown by FIGS. 14 A, B and C, analysis of NFkB expression was performed in Jurkat-Dual reporter cells. Cells were treated for 1 hour with peptides and TNF-α (200 ng/ml) added. Luciferase was measured after 12 hours of treatment (FIG. 14A), 24 hours of treatment (FIG. 14B) and 48 hours of treatment (FIG. 14C).
Another assay was then performed in which cells were pretreated with TNF-α and the synthesized peptides Pep 1-IL10, Pep 2-IL10, Pep 3-IL10 and Pep 4-IL10, at different concentrations, were added later. All peptides were able to modulate NFKB activation after 12, 24 and 48 hours, with different results depending on the concentrations used. The most significant results will be described below. […] After 48 hours of treatment, Pep 1-IL-10 at a concentration of 0.001 μM (P<0.05) was the one that obtained a result with the highest statistical significance in the decrease of NFKB signaling (FIG. 15C). In the assays shown by FIGS. 15 A, B and C, analysis of NFkB expression was performed in Jurkat-Dual reporter cells. Cells were treated for 1 hour with TNF-α (200 ng/ml) and peptides were added. Luciferase was measured after 12 hours of treatment (FIG. 15A), 24 hours of treatment (FIG. 15B) and 48 hours of treatment (FIG. 15C). TNF-α (200 ng/mL) was used as a positive control and rlL-10 (recombinant Interleukin-10) (0.4 ng/mL) as a negative control. *P<0.05; **P<0.005; ***P<0.0005.

[4] = tested on: TFGβRII/SMAD-dependent pathway; experiment: HEK-blue-TGFβ reporter cells, SEAP production; format: cell-based; conditions: tested at 0.1, 1, 10 and 100 μM; for concentrations with statistically significant activation of the SMAD-dependent pathway (SEAP): 12 hours
Experimental: After 12 hours of stimulation (FIG. 4A), all peptides were able to bind to the receptor.
The assay was performed in such a way that approximately 2.5×10^4 cells/well (100 μL) were treated with 100 μL of all synthetic peptides at different concentrations (100 μM, 10 μM, 1 μM and 0.1 μM) while rTGF-β1 ([…]) at 100 ng/ml was used as a positive control. After incubating the cells for 12, 24 and 48 hours at 37° C. in 5% CO2, […] of supernatant was transferred to a Greiner plate to which […] of Quanti-blue solution was added. The plate was incubated for 1 hour at 37° C. in 5% CO2 and the production of SEAP (secreted alkaline phosphatase) was detected at 655 nm. All tests were performed in triplicate.

NFkB pathway [5] = experiment: NFkB expression in Jurkat cells, luciferase (TGF-β1 mimetic peptides); format: cell-based, human; conditions: for concentrations with statistically significant decrease of NFKB pathway activation vs TNF-α control: peptide pretreatment 1 hour, then TNF-α, tested at 0.1-100 μM
Experimental: Two different cell treatments were performed using Jurkat cells to analyze NFkB expression after 12, 24 and 48 hours. In the first test, Jurkat cells were treated only with peptides (no pathway activating molecule) at different concentrations to analyze the ability of each peptide to induce NFkB expression (Figure not shown). None of the tested concentrations induced any type of pathway activation.
The assay was carried out in such a way that a total of 3×10^5 cells/well ([…]) was pretreated with […] of a composition comprising one of the synthetic peptides in concentrations of 100 μM, 10 μM, 1 μM, and 0.1 μM for 1 hour at 37° C. in 5% CO2, followed by stimulation with TNF-α (200 ng/ml) for 12, 24 and 48 hours. The same stimuli were applied to cells pretreated with TNF-α (200 ng/ml) for 1 hour at 37° C. in 5% CO2 followed by stimulation with peptides at 100 μM, 10 μM, 1 μM and 0.1 μM for 12, 24 and 48 hours. Then, […] of supernatant was transferred to a white plate and Quanti-Luc reagent was used to measure the luciferase product. As a control, the peptides were tested at the same concentrations, without any pathway activating molecule, to investigate whether they could activate the NFkB pathway. TNF-α (200 ng/mL) was used as a positive control and rIL-10 (0.4 ng/mL) as a negative control. […].

TLR4 pathway = experiment: HEK-Blue hTLR4 reporter cells, SEAP production (TGF-β1 mimetic peptides); format: cell-based; conditions: peptide pretreatment 1 hour, then LPS 100 ng/mL; 12 hours
Experimental: Similar to the treatment using Jurkat cells, peptides in compositions with different concentrations were also tested in HEK cells to investigate their ability to interfere with the TLR4 pathway.
To ensure that the peptides could not induce any activation when tested alone (no pathway activation molecule) only the peptides were added into the cell line and SEAP production was measured after 12 hours of treatment (Figure not shown).
The assay was performed using HEK-Blue hTLR4 reporter cells (InvivoGen) to investigate the action of peptides in the TLR4 pathway. A total of 2.3×10^4 cells/well ([…]) was pretreated with […] of composition comprising at least one of the synthetic peptides at concentrations of 100 μM, 10 μM, 1 μM, and 0.1 μM for 1 hour at 37° C. ° C. in 5% CO2 followed by LPS stimulation at 100 ng/mL for 12 hours. The same stimuli were applied to cells pretreated with LPS at 100 ng/ml for 1 hour at 37° C. in 5% CO2, followed by stimuli with peptides at 100 μM, 10 μM, 1 μM and 0.1 μM for 12 hours. Stimuli were added in Quanti-blue medium and SEAP production was measured at 655 nm. As a control, peptides at the same concentrations were tested alone to investigate whether they could activate the TLR4 pathway and LPS was used as a positive control.

## Pep 1-TGF-β1: synthetic peptide with affinity to the TGF-β receptor, SEQ ID N 01, with disulfide bridges (HACFLPASGLCGGGS; disulfide 3-11)
[1]
  recognition of receptor-bound peptide by anti-TGF-β1 antibody compared to recombinant TGF-β1: in the same way that the antibody recognized the TGF-β1 recombinant molecule
[2]; TGF-β1 mimetic peptides in solution
  hydrodynamic radius: 0.58 nm

## Pep 3-IL-10: synthetic peptide with affinity to the Interleukin-10 receptor, SEQ ID NO: 11 (HCFDTQRMEFRMPPGG)
IFN signaling pathway
  modulation of the activation of the IFN signaling pathway: able to modulate the activation of the IFN signaling pathway
NFkB pathway [3]
  induction of NFkB expression by peptides alone: not able to induce any response
[2]
  measured hydrodynamic radius: 0.79 nm

## Pep 3-TGF-β1: synthetic peptide with affinity to the TGF-β receptor, SEQ ID N 03, free of disulfide bridges (HASESPLKRQSGGGS)
[1]
  recognition of receptor-bound peptide by anti-TGF-β1 antibody compared to recombinant TGF-β1: in the same way that the antibody recognized the TGF-β1 recombinant molecule

## Pep 4-IL-10: synthetic peptide with affinity to the Interleukin-10 receptor, SEQ ID NO: 12 (HCMTGSRATFPSAPGG)
IFN signaling pathway
  modulation of the activation of the IFN signaling pathway: able to modulate the activation of the IFN signaling pathway
NFkB pathway [3]
  induction of NFkB expression by peptides alone: not able to induce any response
[2]
  measured hydrodynamic radius: 0.86 nm

## Pep 4-TGF-β1: synthetic peptide with affinity to the TGF-β receptor, SEQ ID N 04, with disulfide bridges (HACKLQRSEPCGGGS; disulfide 3-11 (inferred))
[1]
  recognition of receptor-bound peptide by anti-TGF-β1 antibody compared to recombinant TGF-β1: recognized as statistically different

## Pep 5-TGF-β1: synthetic peptide with affinity to the TGF-β receptor, SEQ ID N 05, free of disulfide bridges (HASFLPASGLSGGGS)
[1]
  recognition of receptor-bound peptide by anti-TGF-β1 antibody compared to recombinant TGF-β1: recognized as statistically different
[4]
  concentrations with statistically significant activation of the SMAD-dependent pathway (SEAP): 0.1 μM, 1 μM, 10 μM and 100 μM
NFkB pathway [5]; 24 hours
  concentrations with statistically significant decrease of NFKB pathway activation vs TNF-α control: 0.1 μM; 1 μM and 100 μM
NFkB pathway [5]; 48 hours
  concentrations with statistically significant decrease of NFKB pathway activation vs TNF-α control: 0.1 μM; 1 μM and 10 μM
TLR4 pathway
  concentrations with statistically significant reduction of TLR4 pathway activation: 1 µM and 10 µM

## Pep 8-TGF-β1: synthetic peptide with affinity to the TGF-β receptor, SEQ ID N 08, free of disulfide bridges (HASTLPSNTHSGGGS)
[1]
  recognition of receptor-bound peptide by anti-TGF-β1 antibody compared to recombinant TGF-β1: recognized as statistically different
[4]
  concentrations with statistically significant activation of the SMAD-dependent pathway (SEAP): 1 µM
[4]; 24 hours
  concentrations with significant maintained activation of the SMAD-dependent pathway (SEAP): 1 µM
[4]; 48 hours
  concentrations with significant maintained activation of the SMAD-dependent pathway (SEAP): 0.1 μM, 1 μM and 10 μM
NFkB pathway [5]; cells pretreated with TNF-α, then peptide, 24 hours
  concentration with statistically significant reduction of the NFKB pathway: 0.1 µM
